Measurements reported in patent US11850220B2 (Augusta University Research Institute, Inc., priority 2020, dated 2023).

Key:
[1] = test system: carrageenan-induced paw edema; experiment: carrageenan-induced paw edema technique (anti-inflammatory); assay type: in vivo; conditions: for Observed (1/property): 1/(% inhibition of edema thickness at 3 h effect); for Observed (1/property): test concentration or dose not given here; for Potency (% Inhibition relative to indomethacin at 3 h effect): test concentration or dose not given here
Excerpt: Anti-inflammatory properties of the ibuprofen-amino acid conjugate (5a-j) and ibuprofen-amino acid-4-aminophenol conjugates 7a-j were studied by the standard carrageenan-induced paw edema technique (Naumov, R. N. et al., Bioorg. Med. Chem. Lett. 2015, 25, 2314-2320; Tiwari, A. D. et al., Org. Biomol. Chem. 2014, 12, 7238-7249).

hot plate = hot plate technique (central analgesic); assay type: in vivo; conditions: for Potency: Relative to indomethacin at 120 min.
animal gastric mucosa = experiment: ulcerogenic liability; assay type: in vivo; conditions: in vivo
[2] = test system: acetic acid-induced abdominal writhing; experiment: acetic acid-induced abdominal writhing technique (peripheral analgesic); assay type: in vivo; conditions: for Potency: Relative to indomethacin; for % Inhibition/protection / Writing reflex ± SEM: in vivo; for % Inhibition/protection: test concentration or dose not given here; for Writing reflex ± SEM: test concentration or dose not given here
COX-2 = target: T1, COX-2 (Homo sapiens, UniProt P35354); experiment: COX-1/2 bio-assay: COX-2; assay type: biochemical; conditions: for IC50: read-out: IC50 ± SD, COX-2; for SI(COX-2/COX-1): selectivity index COX-2/COX-1
T1 sequence (P35354 18-604): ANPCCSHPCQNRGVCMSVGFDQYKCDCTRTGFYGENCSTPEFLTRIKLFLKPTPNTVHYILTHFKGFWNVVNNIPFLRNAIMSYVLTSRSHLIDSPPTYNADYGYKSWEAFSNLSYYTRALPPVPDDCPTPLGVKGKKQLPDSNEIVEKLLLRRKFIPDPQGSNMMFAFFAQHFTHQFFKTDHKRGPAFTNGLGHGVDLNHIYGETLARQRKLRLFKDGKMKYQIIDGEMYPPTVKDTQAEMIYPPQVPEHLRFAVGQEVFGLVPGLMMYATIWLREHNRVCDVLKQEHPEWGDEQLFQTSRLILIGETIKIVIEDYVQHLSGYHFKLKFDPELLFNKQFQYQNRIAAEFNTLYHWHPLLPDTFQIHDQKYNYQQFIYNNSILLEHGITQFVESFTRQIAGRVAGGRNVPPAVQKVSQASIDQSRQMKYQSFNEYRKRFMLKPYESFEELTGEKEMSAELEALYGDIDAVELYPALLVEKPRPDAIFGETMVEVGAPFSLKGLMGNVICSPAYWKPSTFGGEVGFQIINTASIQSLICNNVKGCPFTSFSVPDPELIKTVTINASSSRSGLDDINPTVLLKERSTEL
Excerpt: (§1) Cyclooxygenases (COX) are the key enzymes capable of the conversion of arachidonic acid to prostaglandins.

COX-1 = COX-1 (Homo sapiens, UniProt P23219); experiment: COX-1/2 bio-assay: COX-1; assay type: biochemical; conditions: read-out: IC50 ± SD, COX-1
Excerpt: as §1

[3] = % inhibition of edema thickness at 3 h effect, Table 7
[4] = anti-inflammatory property (% inhibition of edema at 3 h), Table 8

Sequence of COX-1 (P23219 24-599): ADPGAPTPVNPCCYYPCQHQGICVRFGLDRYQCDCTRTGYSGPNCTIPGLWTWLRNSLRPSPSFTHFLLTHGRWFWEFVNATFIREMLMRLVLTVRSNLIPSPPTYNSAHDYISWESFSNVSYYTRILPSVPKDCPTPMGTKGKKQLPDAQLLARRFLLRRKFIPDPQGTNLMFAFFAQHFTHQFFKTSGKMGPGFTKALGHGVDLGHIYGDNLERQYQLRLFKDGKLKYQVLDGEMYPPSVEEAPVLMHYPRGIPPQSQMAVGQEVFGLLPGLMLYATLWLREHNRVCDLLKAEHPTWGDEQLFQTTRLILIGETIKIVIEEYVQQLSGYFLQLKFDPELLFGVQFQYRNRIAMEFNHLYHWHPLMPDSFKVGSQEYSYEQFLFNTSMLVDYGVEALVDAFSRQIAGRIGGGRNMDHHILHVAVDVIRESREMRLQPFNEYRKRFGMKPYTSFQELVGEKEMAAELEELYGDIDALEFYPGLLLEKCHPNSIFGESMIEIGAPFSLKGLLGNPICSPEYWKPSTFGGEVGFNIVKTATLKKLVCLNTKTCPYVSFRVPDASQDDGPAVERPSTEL

Row | Structure (SMILES) | Observed (1/property) ([1]; Table 7) | % inhibition of edema ([1]; 1 h) [%] | Mean edema thickness ([1]; 1 h) [mm] | % inhibition of edema ([1]; 2 h) [%] | Mean edema thickness ([1]; 2 h) [mm] | % inhibition of edema ([1]; 3 h) [%] | Mean edema thickness ([1]; 3 h) [mm] | % inhibition of edema ([1]; 4 h) [%] | Mean edema thickness ([1]; 4 h) [mm] | % inhibition of edema ([1]; 24 h) [%] | Mean edema thickness ([1]; 24 h) [mm] | Observed property [1, 3] [%] | Observed property [1, 4] [%] | Potency (% Inhibition relative to indomethacin at 3 h effect) [1] [%] | % protection (hot plate; After 30 min.) | Latency period ± SEM (hot plate; After 30 min.) [s] | % protection (hot plate; After 60 min.) | Latency period ± SEM (hot plate; After 60 min.) [s] | % protection (hot plate; After 90 min.) | Latency period ± SEM (hot plate; After 90 min.) [s] | also measured
1 | CC(C)Cc1ccc(C(C)C(=O)N[C@@H](CCC(N)=O)C(=O)O)cc1 (stereo partly drawn) [Compound 5j, (2-(4-Isobutylphenyl)propanoyl)-L-glutamine] | 0.01389 | 25 | 0.92 ± 0.05 | 45 | 0.83 ± 0.04 | 72 | 0.36 ± 0.02 | 8 | 1.15 ± 0.06 | 47 | 0.10 ± 0.03 | 72 | 72 | 90 | (22.3) % | 2.96 ± 0.02 | (25.1) % | 2.79 ± 0.03 | (45.5) % | 3.20 ± 0.04 | % protection (hot plate; After 120 min.): (46.1) %; Latency period ± SEM (hot plate; After 120 min.): 3.20 ± 0.03 s; Potency (hot plate): 81; % Incidence of ulcer divided by 10 (animal gastric mucosa): 0; Average of ulcer number (animal gastric mucosa): 0; Average severity of ulcer (animal gastric mucosa): 0; Number of animals with ulcer (animal gastric mucosa): 0; Ulcer index (animal gastric mucosa): 0; melting point: 67.4 °C; Potency [2]: 3; % Inhibition/protection [2]: 1.6%; Writing reflex ± SEM [2]: 95.7 ± 2.4
2 | CC(C)Cc1ccc(C(C)C(=O)NCC(=O)Nc2ccc(O)cc2)cc1 (centres unmarked) [Compound 7a, N-(2-((4-Hydroxyphenyl)amino)-2-oxoethyl)-2-(4-isobutylphenyl)propanamide] | 0.01316 | 41 | 0.73 ± 0.04 | 65 | 0.53 ± 0.03 | 76 | 0.31 ± 0.02 | 83 | 0.21 ± 0.02 | 42 | 0.11 ± 0.03 | 76 | 76 | 95 | (97.1) % | 4.77 ± 0.07 | (94.6) % | 4.34 ± 0.04 | (86.4) % | 4.10 ± 0.02 | % protection (hot plate; After 120 min.): (81.7) %; Latency period ± SEM (hot plate; After 120 min.): 3.98 ± 0.11 s; Potency (hot plate): 144; % Incidence of ulcer divided by 10 (animal gastric mucosa): 0; Average of ulcer number (animal gastric mucosa): 0; Average severity of ulcer (animal gastric mucosa): 0; Number of animals with ulcer (animal gastric mucosa): 0; Ulcer index (animal gastric mucosa): 0; melting point: 175.9 °C; IC50 (COX-2): 78.3 ± 5.54 µM; SI(COX-2/COX-1) (COX-2): 29.0; Potency [2]: 139; % Inhibition/protection [2]: 76.4%; Writing reflex ± SEM [2]: 23.0 ± 0.9; IC50 (COX-1): 2.7 ± 0.13 µM
3 | CSCC[C@H](NC(=O)C(C)c1ccc(CC(C)C)cc1)C(=O)Nc1ccc(O)cc1 (stereo partly drawn) [Compound 7i, (2S)-N-(4-Hydroxyphenyl)-2-(2-(4-isobutylphenyl)propanamido)-4-(methylthio)butanamide] | 0.01786 | 34 | 0.81 ± 0.04 | 48 | 0.79 ± 0.04 | 56 | 0.57 ± 0.02 | 49 | 0.64 ± 0.03 | 5 | 0.18 ± 0.02 | 56 | 56 | 70 | (86.4) % | 4.51 ± 0.07 | (90.1) % | 4.24 ± 0.05 | (97.7) % | 4.35 ± 0.02 | % protection (hot plate; After 120 min.): (121.5) %; Latency period ± SEM (hot plate; After 120 min.): 4.85 ± 0.04 s; Potency (hot plate): 215; melting point: 190.8 °C; Potency [2]: 128; % Inhibition/protection [2]: 70.4%; Writing reflex ± SEM [2]: 28.8 ± 1.0
4 | CC(C)Cc1ccc(C(C)C(=O)N[C@@H](CCC(N)=O)C(=O)Nc2ccc(O)cc2)cc1 (stereo partly drawn) [Compound 7j, (2S)—N1-(4-Hydroxyphenyl)-2-(2-(4-isobutylphenyl)propanamido)pentanediamide] | 0.01282 | 55 | 0.55 ± 0.04 | 71 | 0.44 ± 0.02 | 78 | 0.28 ± 0.01 | 47 | 0.66 ± 0.03 | 32 | 0.13 ± 0.03 | 78 | 78 | 98 | (60.7) % | 3.89 ± 0.03 | (64.6) % | 3.67 ± 0.02 | (74.5) % | 3.84 ± 0.15 | % protection (hot plate; After 120 min.): (124.7) %; Latency period ± SEM (hot plate; After 120 min.): 4.92 ± 0.07 s; Potency (hot plate): 220; % Incidence of ulcer divided by 10 (animal gastric mucosa): 0; Average of ulcer number (animal gastric mucosa): 0; Average severity of ulcer (animal gastric mucosa): 0; Number of animals with ulcer (animal gastric mucosa): 0; Ulcer index (animal gastric mucosa): 0; IC50 (COX-2): 116 ± 8.23 µM; SI(COX-2/COX-1) (COX-2): 14.0; Potency [2]: 34; % Inhibition/protection [2]: 18.8%; Writing reflex ± SEM [2]: 79.0 ± 1.8; IC50 (COX-1): 8.29 ± 0.41 µM
